pIC50: −log10 of the molar value.

The target in the assay is T1, Thymidine phosphorylase (Escherichia coli O157:H7, UniProt Q8XB35).
T1 sequence (Q8XB35 whole entry): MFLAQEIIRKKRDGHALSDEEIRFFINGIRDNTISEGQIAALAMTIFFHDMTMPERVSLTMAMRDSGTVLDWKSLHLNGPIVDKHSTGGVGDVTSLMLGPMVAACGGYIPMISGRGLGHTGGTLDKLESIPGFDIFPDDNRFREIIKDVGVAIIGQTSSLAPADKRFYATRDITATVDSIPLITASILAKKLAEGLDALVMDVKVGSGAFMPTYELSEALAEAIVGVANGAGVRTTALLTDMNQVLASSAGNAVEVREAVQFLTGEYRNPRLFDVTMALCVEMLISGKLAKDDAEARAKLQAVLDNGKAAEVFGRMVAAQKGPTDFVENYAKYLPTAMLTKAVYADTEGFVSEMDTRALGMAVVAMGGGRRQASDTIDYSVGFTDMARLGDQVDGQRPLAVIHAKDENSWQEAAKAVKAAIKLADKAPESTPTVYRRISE
Nature of the assay: Thymidine Phosphorylase Inhibition Assay. The note with it: pH 7.4. The method, then: Briefly, a total reaction mixture of 200 µl contained 145 µl of potassium phosphate buffer (pH 7.4), 30 µl of enzyme at concentration 0.05 and 0.002 U, respectively, were incubated with 5 µl of test materials for 10 min at 25 °C in microplate reader. After incubation, pre read at 290 nm was taken to deduce the absorbance of substrate molecules. Substrate (20 µl, 1.5 mM) was dissolved in potassium phosphate buffer and was immediately added to plate and continuously read after 10, 20, and 30 min in micro-plate reader. All assays were performed in triplicate
`S=c1[nH]nc(-c2ccc(Cl)cc2)o1` [5-(4'-Chlorophenyl)-1,3,4-oxadiazole-2(3H)-thione (11)] gave a pIC50 of 4.19.

For the molecule `Sc1nnc(-c2cccc(Cl)c2)o1` [5-(3'-Chlorophenyl)-1,3,4-oxadiazole-2(3H)-thione (10)], the negative logarithm of the IC50 (pIC50) was 3.59.

The molecule `COc1ccc(-c2n[nH]c(=S)o2)cc1` [5-(4'-Methoxyphenyl)-1,3,4-oxadiazole-2(3H)-thione (7)] gave a negative logarithm of the IC50 (pIC50) of 4.14.

As for `S=c1[nH]nc(-c2ccc(Br)cc2)o1` [5-(4'-Bromophenyl)-1,3,4-oxadiazole-2(3H)-thione (12)], the pIC50 was 4.19.

Take `Oc1ccc(-c2nnc(S)o2)cc1` [5(4'-Hydroxyphenyl)-1,3,4-oxadiazole-2(3H)-thione (6)]: the pIC50 was 4.42.

Molecule `Nc1ccccc1-c1n[nH]c(=S)o1` [5-(2'-Aminophenyl)-1,3,4-oxadiazole-2(3H)-thione (3)] showed a pIC50 of 4.13.

The molecule `COc1cc(-c2n[nH]c(=S)o2)cc(OC)c1OC` [5-(3',4',5'-Trimethoxyphenyl)-1,3,4-oxadiazole-2(3H)-thione (8)] gave a pIC50 of 4.20.

In turn, `Oc1ccccc1-c1nnc(S)o1` [5-(2'-Hydroxyphenyl)-2,3-dihydro-1,3,4-oxadiazole-2-thione (2)] gave a pIC50 of 4.17.

`Cc1cccc(-c2nnc(S)o2)c1` [5-(3'-Methylphenyl)-1,3,4-oxadiazole-2(3H)-thione (4)] showed a pIC50 of 4.04.
